From US10696971B2, “MrgprX2/MrgprB2 expressing cell based assay to detect pseudo-allergic drug reactions and to identify blockers to prevent the adverse reactions” (The Johns Hopkins University, priority 2014, dated 2020)

What was measured:
peritoneal mast cells = test: Mouse peritoneal mast cell histamine release assay; format: cell-based; conditions: WT vs MrgprB2^MUT peritoneal mast cells
Description: Mast cells were purified as with the calcium imaging assay and allowed to recover for 2 hours in DMEM with 10% FBS and 25 ng/ml mouse stem cell factor in a 37° C. incubator with 5% CO2. Cells were then spun down, resuspended in CIB, counted, and plated at 300 cells/well in 75 μl CIB in 96-well plates coated with 20 μg/ml fibronectin (Sigma). They were allowed to adhere to the substrate for 45 minutes at 37° C. in atmospheric conditions (i.e. CO2 levels were not adjusted) before assay. […] After 5 minutes, 40 μl of supernatant was aspirated, diluted with 40 μl CIB and frozen at −80° C. until histamine levels were determined. Anti-IgE treatment was similar, except that cells were incubated for 30 minutes at 37° C. after anti-IgE was added before aspiration of supernatant. Histamine content was determined by using an HTRF histamine assay kit (Cisbio Assays) according to the manufacturer's instructions.

WT and MrgprB2^MUT mice = test: Systemic anaphylaxis assay (body core temperature); format: in vivo, mouse; conditions: ciprofloxacin i.v. 1.5 mg in 125 μl saline after propranolol, much smaller drop in MrgprB2^MUT
Description: To minimize stress, animals were transported to the procedure area the day before injections. Adult male and female mice up to 8 months of age (25 to 35 grams) were given an intraperitoneal injection of 80 μg propranolol in saline (2 mg/ml) immediately after removal from their cages, and then placed back in their cages for 30 minutes before intravenous injections. The intravenous injections were performed on one mouse at a time. For each injection, a mouse was placed in a transport box and brought to a room with no other mice, to minimize stress from vocalizations during injection. The mouse was then placed in a restrainer, and the injection was performed within 4 minutes of restraint because it was observed that longer restraint times affected body core temperature independent from the injection. […] The injection was determined to be successful only when all of the criteria were met: blood appeared in the syringe after needle insertion, all tail veins were visible after injection, and the mouse bled slightly from the injection site after needle withdrawal. The injection site was swabbed until blood stopped flowing, the mouse was placed in a separate cage from its housing cage, one mouse per cage, and returned to the room it was brought from. […] Body core temperature was measured with a rectal thermometer.

LAD2 human mast cells = test: LAD2 degranulation assay (β-hexosaminidase release), with MrgprX2 siRNA knockdown; format: cell-based; conditions: compound 48/80 0.1, mastoparan 5, icatibant 10, atracurium 25, ciprofloxacin 75 μg/ml
Description: LAD2 cells were sensitized for 20 hours with 0.5 μg/ml biotin-conjugated human IgE (Abbiotec). Cells were washed, resuspended in Hepes buffer (10 mM HEPES, 137 mM NaCl, 2.7 mM KCl, 0.38 mM Na2HPO4.7H2O, 5.6 mM glucose, 1.8 mM CaCl2.H2O, 1.3 mM MgSO4.7H2O, 0.4% BSA, pH 7.4) at 0.025×10^6 per well, and then stimulated with 0.1 μg/ml streptavidin (Life Technologies) or other agonists at the indicated concentrations for 30 minutes at 37° C./5% CO2. The β-hexosaminidase released into the supernatants and in cell lysates was quantified by hydrolysis of p-nitrophenyl N-acetyl-β-D-glucosamide (Sigma-Aldrich) in 0.1 M sodium citrate buffer (pH 4.5) for 90 minutes at 37° C. The percentage of β-hexosaminidase release was calculated as a percent of total content.
LAD2 cells were washed with medium, suspended at 0.5×10^6 cells per well, and transfected with 100 nm MrgprX2 siRNA and control siRNA in antibiotic-free StemPro medium using Lipofectamine 3000 (Life Technologies) according to the manufacturer's instruction at 37° C./5% CO2. At 48 hours, knockdown was confirmed by reverse-transcriptase PCR, and the cells were used for degranulation assays.

O=C(O)c1cn(C2CC2)c2cc(N3CCNCC3)c(F)cc2c1=O [ciprofloxacin]
histamine release from WT peritoneal mast cells (MrgprB2^MUT released substantially less) (peritoneal mast cells): induced histamine release
change in body temperature (WT and MrgprB2^MUT mice): induced a rapid drop in body temperature
β-hexosaminidase release in MrgprX2 siRNA vs control siRNA cells (LAD2 human mast cells): significantly reduced
